Reference: patent publication US12161763B2, “Formulation and method for increasing oral bioavailability of drugs” (Yissum Research Development Company of the Hebrew …, priority 2012, dated 2024)
Values joined by “and” are separate entries in the source; they are usually repeats but may differ in a detail not shown here. Equal entries are not always repeated. Structures can show the parent of a compound that is named as a salt.

Tests used:
[1] = system: Male Wistar rats; test: AM pharmacodynamic study: heart rate and IBI by radiotelemetry; assay type: in vivo; settings: 12.5 mg/kg AM PO
Procedure: The deferential effect of AM on heart rate was used as a pharmacodynamic marker for assessment of AM pharmacological effect following oral administration.
Male Wistar rats (Harlan, Israel) weighing 300-350 g were kept under a 12 h light/dark cycle with free access to water and food (standard rat chow) Animals were anesthetized for the period of surgery by intraperitoneal injection of 1 mL/kg of ketamine-xylazine solution (90/10%, respectively).
An ECG transmitter (TA11CA-F40, Data Sciences International Inc., St. Paul, MN) was implanted subcutaneously over the scapula with the leads in a Lead 2 configuration by tunneling subcutaneously from the dorsal incision using a trocar. The negative lead was placed in the area of the right shoulder and the positive lead was placed immediately to the left of the xyphoid space and caudal to the rib cage.
The signal from the transmitters was received by two RLA 2000 receivers and transmitted via a Data Exchange Matrix to a Dataquest PCI card. The data were recorded continuously during the whole experiment at 1000 Hz rate with no filter cutoff and full scale at 10 mV.
The collected data were interpreted by Dataquest A.R.T program. The IBI (R-R duration, sec) and HR (bpm) were calculated in average values of each 10 min of the recording.
At the beginning the baseline were recorded at least for 120 min. After establishing stable recording the rats were treated by oral gavage. During the treatment the data was collected and afterwards extracted in further analysis.
Two groups of three rats received the treatment in a cross over manner, meaning each rat received each treatment once. The treatments were as follows:
Blank nano-lipospheres not containing AM was freshly prepared as described above and was administered by oral gavage. […] .
In order to inspect separately the effect of each delivery method, we first calculated the mean baseline IBI duration throughout 60 min prior the administration. The drug was administered at t=60 min Post administration the data was calculated throughout 180 min. The net change was calculated as the percentage of the change for each drug administration mode relative to the baseline recording. The changes from base-line in two parameters: IBI and HR were analyzed in two points: 90 min. post administration (mid phase) and 180 min post administration (end phase) (Tables 9A-B and 10A-B, respectively).

[2] = Compatibility of BCS class II and IV drugs with the piperine-PNL pre-concentrate; assay type: physicochemical
Source text: In order to determine the compatibility of the developed PNL delivery system with various lipophilic drugs, we have tested the ability of the piperine-PNL to dissolve various BCS class II and IV drugs.

[3] = CBD relative oral bioavailability: CBD, CBD-PNL and CBD-PNL with absorption enhancers; settings: male, Wistar, rat, in vivo; PO CBD 15 mg/kg; Piperine 10 mg/kg, rats; mean ± S.E.M.
Procedure: The obtained CBD and piperine concentrations were 3 mg/mL and 2 mg/ml, respectively. […] The control groups received (15 mg/kg) CBD solution in propylene glycol/EthOH/water 30/30/40 respectively (1 mg/mL) (n=6) or CBD-PNL ((15 mg/kg of CBD).

[4] = CBD nano lipospheres relative oral bioavailability study; assay type: in vivo; settings: male, Wistar, rat, plasma; PO 15 mg/kg CBD, rats
Procedure: The obtained CBD concentration was 3 mg/mL. […] The control group received (15 mg/kg) CBD solution in propylene glycol/EthOH/water 30/30/40 respectively (1 mg/mL) (n=6).

[5] = Talinolol relative oral bioavailability study; assay type: in vivo; settings: male, Wistar, rat, plasma; PO 4 mg/kg talinolol, rats
Procedure: The obtained talinolol concentration was 1 mg/mL. […] The control group received 4 mg/kg talinolol dissolved in PEG400:water:ethanol 25:60:15 to obtain 1 mg/mL concentration (n=6).

[6] = Absorption enhancer pro-nano-liposphere development: dissolution in pre-concentrate and precipitation on dilution with water; assay type: physicochemical; settings: for precipitation of the absorption enhancer upon dilution with water phase: curcumin 1% and 2%, resveratrol, piperine 2%
Procedure: The development of each of the formulations, in terms of a selection of the different components, was conducted by the following method. A combination of certain components was used as a reference starting point (as per Table 16). The choice of these certain triglyceride, organic amphiphilic co-solvent and the combination of surfactants in the detailed portions in Table 16 was based on the inventors' previous experience with various lipophilic drugs. Thus, an absorption enhancer was added to this specified prototype formulation to form a pre-concentrate.

[7] = Tacrolimus oral bioavailability study; assay type: in vivo, Male Wistar rats
[8] = system: CYP3A4; settings: 120 min incubation in isolated rat microsomes
[9] = 90 min post administration, HCl
[10] = 180 min post administration, HCl

SMILES: CCCCc1oc2ccccc2c1C(=O)c1cc(I)c(OCCN(CC)CC)c(I)c1 [AM, Amiodarone HCl]
- HEART RATE (BPM) MID PHASE ([1]; 90 min post administration): 452.916 ± 20.01 BPM
- IBI (sec) MID PHASE ([1]; 90 min post administration): 0.1435 ± 0.008 s
- HEART RATE CHANGE % (percentage from baseline), mid phase [1, 9]: 131.28% and 131.28 (*) %
- IBI CHANGE % (percentage from baseline), mid phase [1, 9]: 88.86% and 88.86 (*) %
- IBI (sec) END PHASE ([1]; 180 min post administration): 0.143 ± 0.007 s
- HEART RATE (BPM) END PHASE [1, 10]: 443.071 ± 11.06 BPM and 443.07 ± 11.06 BPM
- HEART RATE CHANGE % (percentage from baseline), end phase [1, 10]: 128.43% and 128.43 (*) %
- IBI CHANGE % (percentage from baseline), end phase [1, 10]: 89.79% and 89.79 (*) %
- heart rate following administration ([1]; phase not given): 452.916±20.01 BPM
- mean IBI following administration ([1]; phase not given): 0.143 ± 0.0074 s

SMILES: C[C@@H]1[C@H](O)[C@@H](C)/C=C/C=C/C=C/C=C/C=C/C=C/C=C/[C@H](O[C@@H]2O[C@H](C)[C@@H](O)[C@H](N)[C@@H]2O)C[C@@H]2O[C@](O)(C[C@@H](O)C[C@@H](O)[C@H](O)CC[C@@H](O)C[C@@H](O)CC(=O)O[C@H]1C)C[C@H](O)[C@H]2C(=O)O [Amphotericin B]
- compatibility with the pre-concentrate [2]: incompatible

SMILES: C=C(C)[C@@H]1CCC(C)=C[C@H]1c1c(O)cc(CCCCC)cc1O [CBD, Cannabidiol]
- AUC [3]: 90 ± 21 ng·h/mL
- Cmax [3]: 39 ± 8 ng/mL
- AUC [4]: 259 ng·h/mL
- Cmax [4]: 105 ± 103 ng/mL

SMILES: CC(C)(C)NCC(O)COc1ccc(NC(=O)NC2CCCCC2)cc1 (stereo not drawn) [Talinolol, talinolol]
- AUC [5]: 11.9 ng·h/mL
- Cmax [5]: 5.55 ± 1.65 ng/mL
- half-life [5]: 1.15 ± 0.19 h

SMILES: COc1cc(/C=C/C(=O)CC(=O)/C=C/c2ccc(O)c(OC)c2)ccc1O [curcumin]
- precipitation of the absorption enhancer upon dilution with water phase [6]: precipitation

SMILES: Oc1ccc(C=Cc2cc(O)cc(O)c2)cc1 [resveratrol]
- dissolution of the absorption enhancer in the pre-concentrate / appearance of pre-concentrate [6]: homogeneous and visually clear pre-concentrate
- precipitation of the absorption enhancer upon dilution with water phase [6]: No precipitation

SMILES: C=CC[C@@H]1/C=C(\C)C[C@H](C)C[C@H](OC)[C@H]2O[C@@](O)(C(=O)C(=O)N3CCCC[C@H]3C(=O)O[C@H](/C(C)=C/[C@@H]3CC[C@@H](O)[C@H](OC)C3)[C@H](C)[C@@H](O)CC1=O)[C@H](C)C[C@@H]2OC [tacrolimus]
- Coefficient of variation (% CV) of plasma tacrolimus concentrations ([7]; 0.25 h after PO 1 mg/kg): 95.1%
- Coefficient of variation (% CV) of plasma tacrolimus concentrations ([7]; 0.5 h after PO 1 mg/kg): 90.8%
- Coefficient of variation (% CV) of plasma tacrolimus concentrations ([7]; 0.75 h after PO 1 mg/kg): 73.2%
- Coefficient of variation (% CV) of plasma tacrolimus concentrations ([7]; 1 h after PO 1 mg/kg): 83.5%
- Coefficient of variation (% CV) of plasma tacrolimus concentrations ([7]; 2 h after PO 1 mg/kg): 103.5%

SMILES: C[C@]12CC[C@H]3[C@@H](CCC4=CC(=O)CC[C@@]43C)[C@@H]1CC[C@@H]2O [testosterone]
- testosterone remaining [8]: 75.39±8.82%
